Measured values: PMC11554305, “Functional identification of soluble uric acid as an endogenous inhibitor of CD38” (eLife, 2024)
Where two headings read alike, the source gives them in different places.

Key:
CD38 = test: Hydrolase and cyclase activities of human and murine CD38; type: biochemical; conditions: for Effect on hydrolase and cyclase activities of human and murine CD38: sUA precursors and metabolite, above physiological levels, Figure 2B, C and supplement 1A–C; for Effect on CD38 activity: analogs and fragments, 5 to 500 μM, recombinant hCD38, THP-1 cells, WT lung tissues, Figure 2D, E
Protocol: The hydrolase activity of CD38 was measured according to a previous report ([de Oliveira et al., 2018]) with minor modifications. CD38 hydrolase activity was measured using 50 μM ε-NAD^+ as a substrate in hydrolase reaction buffer (250 mM sucrose, 40 mM Tris-HCl, pH 7.4). Briefly, cells or tissues were directly homogenized in blank reaction buffer on ice, and recombinant hCD38 was diluted in blank reaction buffer for subsequent assays. The tissue homogenates were centrifuged to collect the supernatant for enzyme assays. The loading volume of enzyme was 4–30 μL, the total volume of the reaction system was 3 mL. To detect enzyme inhibition, except when specified, the ligands were directly dissolved in hydrolase reaction buffer before pH adjustment, after which, the pH was immediately adjusted to 7.4. All reaction buffers, with or without ligands, were freshly prepared before each assay. For measurement of hydrolase activity, 3 mL reaction buffer containing enzyme, ε-NAD^+, and ligands at indicated concentrations was maintained at 37°C with constant stirring.
The cyclase activity of CD38 was measured as previously described ([Higashida et al., 1999]; [Jin et al., 2007]). CD38 cyclase activity was measured using 60 μM NGD as a substrate in cyclase reaction buffer (100 mM KCl, 10 μM CaCl2, and 50 mM Tris-HCl, pH 6.6). Tissues were cut into pieces and suspended in the buffer (5 mM MgCl2, 10 mM Tris-HCl, pH 7.3) at 4°C for 30 min. Then, the suspension was homogenized on ice, and the supernatant was collected after centrifugation. To collect the crude membrane fractions, the supernatant was centrifuged at 105,000×g for 30 min. The final pellet was resuspended in 10 mM Tris-HCl solution (pH 6.6) for cyclase assay. Homogenates of THP-1 or A549 cells, and recombinant hCD38 were used directly for cyclase assays. The loading volume of enzyme was 4–20 μL, the total volume of reaction system was 3 mL. To detect enzyme inhibition, except when specified, the ligands were directly dissolved in cyclase reaction buffer before pH adjustment, after which, the pH was immediately adjusted to 6.6. All reaction buffers, with or without ligands, were freshly prepared before each assay. For measurement of cyclase activity, 3 mL reaction buffer containing enzyme, NGD, and ligands at indicated concentrations was maintained at 37°C with constant stirring.
The reaction buffer for hydrolase or cyclase assays was excited at 300 nm, and fluorescence emission was measured every second at 410 nm by Shimazu RF-6000 spectrofluorometer. Hydrolase or cyclase activity was calculated from the linear portion of the time course by fitting a linear function to the data points recorded within 5 min.
(§1) Guanosine was dissolved in DMSO and diluted in the reaction buffer for subsequent assays.
For reversibility test, recombinant hCD38 was pre-incubated for 30 min in four conditions: (1) control reaction buffer; (2) in the presence of 100 μM substrate (ε-NAD^+ or NGD); (3) 500 μM sUA; (4) both substrate and sUA. Subsequently, the enzyme was diluted 100-fold in reaction buffer in the presence or absence of 500 μM sUA for activity assays using ε-NAD^+ or NGD. Naïve THP-1 and A549 cells were incubated with RPMI-1640 medium in the presence or absence of 500 μM sUA for 2 hr. The cells were collected and homogenized in the reaction buffer on ice with or without 500 μM sUA, samples were then diluted 100-fold in reaction buffer with or without 500 μM sUA for enzyme assay. Control group was not treated with sUA in all steps; sUA group was treated with sUA in each step; sUA release group was treated with sUA prior to dilution in sUA-free buffer for enzyme assays.

[1] = Solubility and crystal precipitation in solution; type: physicochemical
Protocol: as §1
MSU crystals were prepared by the recrystallization of oversaturated sUA according to a previous report ([Martinon et al., 2006]). Improper preparation of sUA solution may introduce crystals to cause false-positive or false-negative results. […] In this study, the sUA solution was prepared according to an improved protocol ([Ma et al., 2020]). […] Then, sUA solution was immediately filtered by 0.2 μm filters and diluted to experimental concentration (up to 10 mg/dL, 595 μM) for cell experiments. […]

Compound | Effect on hydrolase and cyclase activities of human and murine CD38 (CD38) | also measured
NC(=O)NC1NC(=O)NC1=O (stereo not drawn) [Allantoin, allantoin] | hardly inhibited | 
O=c1cc[nH]c(=O)[nH]1 [Uracil, uracil] |  | Effect on CD38 activity (CD38): did not affect CD38 activity
O=c1[nH]cc[nH]1 [1,3-DHI-2-one, 1,3-dihydroimidazol-2-one] |  | Effect on CD38 activity (CD38): did not affect CD38 activity
Nc1ncnc2c1ncn2[C@@H]1O[C@H](CO)[C@@H](O)[C@H]1O [Adenosine, adenosine] | hardly inhibited | 
Nc1nc2c(ncn2[C@@H]2O[C@H](CO)[C@@H](O)[C@H]2O)c(=O)[nH]1 [Guanosine, guanosine, reference compound] | hardly inhibited | Solubility in reaction buffer ([1]; tested only at 50 μM): limited solubility
8-oxoguanine [8-OG, reference compound] |  | Solubility in reaction buffer [1]: limited solubility

Second part, led by results:

Effect on hydrolase and cyclase activities of human and murine CD38 (CD38) | Compound | also measured
hardly inhibited | O=c1[nH]cnc2nc[nH]c12 [Hypoxanthine, hypoxanthine] | 
hardly inhibited | O=c1[nH]c(=O)c2nc[nH]c2[nH]1 [Xanthine, xanthine] | 
